As usually defined, the IC50 is the concentration at which inhibition is half-maximal.

One assay deals with bFGF-stimulated HUVECs. Briefly: bFGF-induced proliferation of human endothelial cells (HUVEC proliferation assay). The class given is cell-based. The following applies: 20 ng/ml bFGF, 48 hours, read-out: IC50 of Antiproliferative Effect. An excerpt: Proliferation assays familiar to those skilled in the art using human umbilical vein endothelial cells (HUVECs) were employed in order to determine the effect of various antibiotics on the growth of bFGF-stimulated HUVECs.
The materials for this experiments included endothelial cells (HUVECS) and media for their proliferation (Media 200, fetal bovine serum (FBS), gelatin, bFGF) (Paragon Bioservices, Baltimore, Md.), and Cell Titer 96 for detection of cell proliferation (Paragon Bioservices, Baltimore, Md.). Antibiotics aurovertin B, citreoviridin, oligomycin A, oligomycin B, oligomycin C, and efrapeptin D were all obtained from Sigma Chemical Company (St. Louis, Mo.).
HUVECs were routinely cultured to confluency in Media 200 containing 10% FBS. The cells were then trypsinized and plated in a 96-well plate pre-coated with 1% gelatin at 5000 cells per well per 100 μL Media 200 containing 2% FBS. The cells were allowed to adhere for 24 hours. Subsequently, the media were aspirated and fresh Media 200 containing 0.5% FBS were added to the wells. Addition of various concentrations of antibiotics in the presence and absence of 20 ng/ml bFGF followed. The assay plates were incubated at 37° C., 5% CO2 for 48 hours. At the end of the incubation period, cell proliferation was determined using cell counting (Cell Counter Model Z1, Coulter Incorporation, Miami, Fla.) or spectrophotometry. In the later case, the assay plates were incubated with Cell Titer 96 for 2 hours and the absorbance was recorded at 490 nm.

The next assay concerns VEGF-stimulated HUVECs. Briefly: VEGF-induced migration of human endothelial cells (modified Boyden chamber). To be noted: 5 ng/ml VEGF, six hours. The class given is cell-based. The source says:
A migration assay familiar to those skilled in the art using vascular endothelial growth factor (VEGF)-stimulated HUVECs was employed to determine the effect of aurovertin B on endothelial cell migration.
The endothelial cells were routinely cultured as previously described.
Modified Boyden chambers in a 48-well format consisting of upper and lower wells separated by an 8-microns pore polycarbonate filter coated with collagen were used to study VEGF-induced migration of HUVECs (Paragon Bioservices, Baltimore, Md.). The endothelial cells were added to the lower wells and the migrating factor (5 ng/ml VEGF) was added to the upper wells. HUVECs were allowed to migrate from the lower to the upper wells for six hours at 37° C., 5% CO2. At the end of the incubation period, the filters were removed and washed gently. The cells on the filters were then fixed, stained with hematoxylin, and counted with a light microscope. The values obtained represent the mean of ten fields.

Assay [1] relates to murine B16F10 melanoma tumors. Briefly: Growth of murine B16F10 melanoma tumors in C57 mice. It counts as in vivo. To be noted: 2 mg/kg i.p. every day for 9 days. The procedure:
The effect of aurovertin B and efrapeptin D on the growth of murine B16F10 melanoma tumors (ATCC, Rockville, Md.) was investigated. Groups of four C57 mice (The Jackson Laboratory, BarHarbor, Me.) were injected subcutaneously with 5×10^4 B16F10 cells (The Jackson Laboratory, BarHarbor, Me.). The mice were subsequently treated i.p. with 2 mg/kg aurovertin B, 0.4 mg/kg efrapeptin D, or vehicle control. The treatment was initiated three days after the tumor inoculation and continued every day for 9 days. The tumor growth was recorded at the end of the experiment.

Consider `CC[C@H]1O[C@]2(C)[C@H](OC(C)=O)[C@@]1(C)O[C@@H](/C=C/C=C/C=C/c1oc(=O)cc(OC)c1C)[C@@H]2O` [Aurovertin, aurovertin B], for which, in the assay with bFGF-stimulated HUVECs, the IC50 is 10 µM. The “inhibition of VEGF-induced migration of HUVECs (in words)” value in the assay on VEGF-stimulated HUVECs is “inhibited VEGF-induced migration of HUVECs”. The “mice that exhibited measurable, growing tumors at the end of the treatment” value in assay [1] was 50%. Besides, the “Number of mice that developed measurable tumors/Number of mice injected with tumor cells” value in assay [1] (started three days after tumor inoculation) is listed as 2/4.

In the case of `COc1cc(=O)oc(/C=C/C=C/C=C/C(C)=C/[C@@]2(C)O[C@H](C)[C@](C)(O)[C@H]2O)c1C` [Citreoviridin, citreoviridin], in the assay with bFGF-stimulated HUVECs, the IC50 was found to be 10 µM.

Consider `CC[C@@H]1/C=C/C=C/C[C@H](C)[C@H](O)[C@](C)(O)C(=O)[C@H](C)[C@@H](O)[C@H](C)C(=O)[C@H](C)[C@@H](O)[C@H](C)/C=C/C(=O)O[C@H]2[C@@H](C)[C@@H](CC1)O[C@@]1(CC[C@@H](C)[C@@H](C[C@H](C)O)O1)[C@@H]2C` [Oligomycin A, oligomycin A], for which the IC50 in the assay with bFGF-stimulated HUVECs stood at 5 µM. As to `CC[C@H]1/C=C/C=C/C[C@@H](C)[C@H](O)[C@@](C)(O)C(=O)[C@@H](C)[C@H](O)[C@@H](C)C(=O)[C@@H](C)[C@H](O)[C@@H](C)/C=C/C(=O)O[C@@H]2[C@H](C)[C@H](CC1)O[C@@]1(O[C@@H](C[C@@H](C)O)[C@@H](C)CC1=O)[C@H]2C` [Oligomycin B, oligomycin B], the IC50 with bFGF-stimulated HUVECs was 5 µM. Regarding `CC[C@@H]1C=CC=CC[C@H](C)[C@@H](O)[C@@H](C)C(=O)[C@H](C)[C@@H](O)[C@H](C)C(=O)[C@H](C)[C@@H](O)[C@H](C)C=CC(=O)O[C@H]2[C@@H](C)[C@@H](CC1)O[C@@]1(CC[C@@H](C)[C@@H](C[C@H](C)O)O1)[C@@H]2C` [Oligomycin C, oligomycin C], the IC50 in the assay on bFGF-stimulated HUVECs came to 5 µM.
